Common to all, as to design: recommended concentration 1 uM
Test [1] addresses T1, Hepatocyte nuclear factor 4-alpha (Homo sapiens) (UniProt P41235).
T1 sequence (whole entry): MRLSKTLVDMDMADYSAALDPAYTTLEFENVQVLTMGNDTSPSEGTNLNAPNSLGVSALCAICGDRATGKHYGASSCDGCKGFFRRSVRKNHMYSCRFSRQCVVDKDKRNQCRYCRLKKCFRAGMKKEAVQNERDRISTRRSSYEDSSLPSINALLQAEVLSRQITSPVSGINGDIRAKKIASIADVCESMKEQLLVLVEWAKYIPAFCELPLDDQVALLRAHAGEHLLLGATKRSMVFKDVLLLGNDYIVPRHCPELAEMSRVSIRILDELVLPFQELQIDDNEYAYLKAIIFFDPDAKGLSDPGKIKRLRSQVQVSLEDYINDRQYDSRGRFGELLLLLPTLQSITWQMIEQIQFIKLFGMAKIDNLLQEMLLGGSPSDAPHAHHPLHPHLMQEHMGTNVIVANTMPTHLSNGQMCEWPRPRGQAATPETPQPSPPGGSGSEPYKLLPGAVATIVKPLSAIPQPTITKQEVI
Kind of test: Selectivity interaction (Reporter gene assay) EUB0001164a HNF4A.

The target of test [2] is T2, Nuclear receptor subfamily 2 group C member 1 (Homo sapiens) (UniProt P13056).
T2 sequence (whole entry): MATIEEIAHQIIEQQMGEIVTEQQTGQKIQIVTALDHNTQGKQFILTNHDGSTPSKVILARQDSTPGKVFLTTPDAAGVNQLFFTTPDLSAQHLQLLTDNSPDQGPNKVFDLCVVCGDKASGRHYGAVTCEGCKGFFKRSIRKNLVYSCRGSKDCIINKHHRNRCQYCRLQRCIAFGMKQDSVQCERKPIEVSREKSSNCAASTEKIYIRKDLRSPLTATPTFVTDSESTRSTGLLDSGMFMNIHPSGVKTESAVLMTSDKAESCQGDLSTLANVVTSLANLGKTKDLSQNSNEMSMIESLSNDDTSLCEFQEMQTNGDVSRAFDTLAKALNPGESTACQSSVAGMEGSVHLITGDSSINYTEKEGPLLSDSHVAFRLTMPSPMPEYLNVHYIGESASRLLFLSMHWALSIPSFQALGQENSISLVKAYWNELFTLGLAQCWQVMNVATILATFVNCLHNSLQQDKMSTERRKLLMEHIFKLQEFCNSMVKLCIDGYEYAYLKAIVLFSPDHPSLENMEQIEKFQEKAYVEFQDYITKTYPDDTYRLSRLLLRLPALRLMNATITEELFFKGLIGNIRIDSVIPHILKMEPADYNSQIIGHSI
Kind of test: Selectivity interaction (Reporter gene assay) EUB0001164a NR2C1.

Test [3] has as its target Nuclear receptor subfamily 2 group E member 1 (Homo sapiens) (UniProt Q9Y466). Briefly: Selectivity interaction (Reporter gene assay) EUB0001164a NR2E1. For orientation: Reporter assays use an easily measured gene product as a stand-in for the process of interest.
Test [4] concerns the target Nuclear receptor subfamily 4immunitygroup A member 1 (Homo sapiens) (UniProt P22736). Briefly: Selectivity interaction (Reporter gene assay) EUB0001164a NR4A1.
The target of test [5] is Steroidogenic factor 1 (Homo sapiens) (UniProt Q13285). Briefly: Selectivity interaction (Reporter gene assay) EUB0001164a NR5A1.
Sequence of Steroidogenic factor 1 (Homo sapiens) (Q13285 whole entry): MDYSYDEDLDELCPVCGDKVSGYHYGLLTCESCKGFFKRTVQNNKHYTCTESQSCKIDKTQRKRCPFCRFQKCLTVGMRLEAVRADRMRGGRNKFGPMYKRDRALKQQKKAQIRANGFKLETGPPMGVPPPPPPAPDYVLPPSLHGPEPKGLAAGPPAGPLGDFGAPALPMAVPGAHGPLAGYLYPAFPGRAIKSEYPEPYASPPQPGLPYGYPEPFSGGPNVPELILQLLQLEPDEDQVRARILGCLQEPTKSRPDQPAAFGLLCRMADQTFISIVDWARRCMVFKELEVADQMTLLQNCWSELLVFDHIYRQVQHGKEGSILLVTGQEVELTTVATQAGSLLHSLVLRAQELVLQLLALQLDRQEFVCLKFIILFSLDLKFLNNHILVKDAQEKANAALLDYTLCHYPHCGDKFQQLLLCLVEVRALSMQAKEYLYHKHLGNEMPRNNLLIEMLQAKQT
Test [6] deals with T3, Alpha trans-inducing protein (Human alphaherpesvirus 1) (UniProt A0A5J6DW59). Kind of test: Selectivity interaction (Reporter gene assay) EUB0001164a UL48.
T3 sequence (A0A5J6DW59 as listed by the source): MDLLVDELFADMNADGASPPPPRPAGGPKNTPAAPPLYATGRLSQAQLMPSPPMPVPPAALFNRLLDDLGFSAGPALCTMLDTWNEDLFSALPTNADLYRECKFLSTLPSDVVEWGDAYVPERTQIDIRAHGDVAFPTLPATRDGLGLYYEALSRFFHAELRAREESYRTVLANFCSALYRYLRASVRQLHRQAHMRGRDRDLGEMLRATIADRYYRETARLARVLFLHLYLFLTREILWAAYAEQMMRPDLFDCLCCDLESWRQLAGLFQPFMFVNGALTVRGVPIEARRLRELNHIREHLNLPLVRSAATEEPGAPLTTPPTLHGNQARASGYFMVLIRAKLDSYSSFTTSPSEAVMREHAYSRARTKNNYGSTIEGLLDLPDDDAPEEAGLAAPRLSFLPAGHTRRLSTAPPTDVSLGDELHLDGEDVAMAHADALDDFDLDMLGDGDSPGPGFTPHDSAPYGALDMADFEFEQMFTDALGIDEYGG
The target of test [7] is T4, Retinoic acid receptor RXR-alpha (Homo sapiens) (UniProt P19793).
T4 sequence (whole entry): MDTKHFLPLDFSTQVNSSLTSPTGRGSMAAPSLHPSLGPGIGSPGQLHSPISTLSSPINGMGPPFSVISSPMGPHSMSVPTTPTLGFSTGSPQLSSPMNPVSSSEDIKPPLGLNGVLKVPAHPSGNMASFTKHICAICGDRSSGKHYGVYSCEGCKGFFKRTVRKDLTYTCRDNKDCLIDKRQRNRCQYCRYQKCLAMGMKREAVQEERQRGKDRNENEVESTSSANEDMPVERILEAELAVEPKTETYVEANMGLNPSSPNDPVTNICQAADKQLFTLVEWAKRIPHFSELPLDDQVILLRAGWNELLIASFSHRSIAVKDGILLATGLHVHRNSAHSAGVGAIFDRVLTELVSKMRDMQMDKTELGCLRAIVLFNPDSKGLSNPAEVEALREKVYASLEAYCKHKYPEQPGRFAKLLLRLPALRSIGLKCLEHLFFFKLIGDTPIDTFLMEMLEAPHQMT
Kind of test: Selectivity interaction (Reporter gene assay) EUB0001164a RXRA. Particulars: reference bexarotene 1 uM, Selectivity number of off-targets 0.0, Selectivity number of targets 1.0, Source Knowledge inhouse.

Test [8] addresses T1, Hepatocyte nuclear factor 4-alpha (Homo sapiens). Kind of test: Selectivity interaction (Reporter gene assay) EUB0001166a HNF4A.
Test [9] deals with T2, Nuclear receptor subfamily 2 group C member 1 (Homo sapiens). Kind of test: Selectivity interaction (Reporter gene assay) EUB0001166a NR2C1.
The target in test [10] is Nuclear receptor subfamily 2 group E member 1 (Homo sapiens) (UniProt Q9Y466). Kind of test: Selectivity interaction (Reporter gene assay) EUB0001166a NR2E1.
Sequence of Nuclear receptor subfamily 2 group E member 1 (Homo sapiens) (Q9Y466 whole entry): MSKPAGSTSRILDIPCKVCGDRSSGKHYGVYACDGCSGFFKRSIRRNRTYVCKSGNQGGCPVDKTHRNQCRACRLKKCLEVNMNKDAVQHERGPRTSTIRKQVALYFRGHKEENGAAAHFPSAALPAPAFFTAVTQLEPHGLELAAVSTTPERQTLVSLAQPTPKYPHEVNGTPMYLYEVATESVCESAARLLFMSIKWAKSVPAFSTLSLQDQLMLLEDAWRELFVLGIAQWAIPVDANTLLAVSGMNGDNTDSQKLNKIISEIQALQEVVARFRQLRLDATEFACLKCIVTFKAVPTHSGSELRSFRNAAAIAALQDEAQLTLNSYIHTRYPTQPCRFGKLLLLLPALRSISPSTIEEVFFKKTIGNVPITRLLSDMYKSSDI
Test [11] concerns the target Nuclear receptor subfamily 4immunitygroup A member 1 (Homo sapiens) (UniProt P22736). Briefly: Selectivity interaction (Reporter gene assay) EUB0001166a NR4A1.
Test [12] has as its target Steroidogenic factor 1 (Homo sapiens) (UniProt Q13285). Kind of test: Selectivity interaction (Reporter gene assay) EUB0001166a NR5A1.
Test [13] deals with T3, Alpha trans-inducing protein (Human alphaherpesvirus 1). Briefly: Selectivity interaction (Reporter gene assay) EUB0001166a UL48.
Test [14] has as its target T4, Retinoic acid receptor RXR-alpha (Homo sapiens). Briefly: Selectivity interaction (Reporter gene assay) EUB0001166a RXRA. The note with it: reference bexarotene 1 uM, Selectivity number of off-targets 0.0, Selectivity number of targets 1.0, Source Knowledge inhouse.
Test [15] concerns the target T5, Oxysterols receptor LXR-beta (Homo sapiens) (UniProt P55055).
T5 sequence (whole entry): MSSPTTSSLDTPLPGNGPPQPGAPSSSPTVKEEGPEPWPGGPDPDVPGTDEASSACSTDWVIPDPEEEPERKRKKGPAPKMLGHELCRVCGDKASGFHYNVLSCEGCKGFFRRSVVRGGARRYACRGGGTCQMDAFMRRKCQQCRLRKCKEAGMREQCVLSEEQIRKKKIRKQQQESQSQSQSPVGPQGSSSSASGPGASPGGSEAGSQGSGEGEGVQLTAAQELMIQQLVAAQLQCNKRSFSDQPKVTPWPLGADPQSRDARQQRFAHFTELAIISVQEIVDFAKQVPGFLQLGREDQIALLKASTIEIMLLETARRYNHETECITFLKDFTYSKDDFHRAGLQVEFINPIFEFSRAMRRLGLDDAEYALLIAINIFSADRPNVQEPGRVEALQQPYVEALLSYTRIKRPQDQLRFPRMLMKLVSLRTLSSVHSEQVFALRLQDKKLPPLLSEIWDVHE
Kind of test: Selectivity interaction (Reporter gene assay) EUB0001168a NR1H2. Particulars: screened at recom. conc., Selectivity number of off-targets 1.0, Selectivity number of targets 19.0, Source Knowledge inhouse.

Test [16] has as its target T1, Hepatocyte nuclear factor 4-alpha (Homo sapiens). Kind of test: Selectivity interaction (Reporter gene assay) EUB0001168a HNF4A.
Test [17] concerns the target T2, Nuclear receptor subfamily 2 group C member 1 (Homo sapiens). Kind of test: Selectivity interaction (Reporter gene assay) EUB0001168a NR2C1.
The target of test [18] is Nuclear receptor subfamily 2 group E member 1 (Homo sapiens) (UniProt Q9Y466). Briefly: Selectivity interaction (Reporter gene assay) EUB0001168a NR2E1.
Test [19] deals with Nuclear receptor subfamily 4immunitygroup A member 1 (Homo sapiens) (UniProt P22736). Kind of test: Selectivity interaction (Reporter gene assay) EUB0001168a NR4A1.
Sequence of Nuclear receptor subfamily 4immunitygroup A member 1 (Homo sapiens) (P22736 whole entry): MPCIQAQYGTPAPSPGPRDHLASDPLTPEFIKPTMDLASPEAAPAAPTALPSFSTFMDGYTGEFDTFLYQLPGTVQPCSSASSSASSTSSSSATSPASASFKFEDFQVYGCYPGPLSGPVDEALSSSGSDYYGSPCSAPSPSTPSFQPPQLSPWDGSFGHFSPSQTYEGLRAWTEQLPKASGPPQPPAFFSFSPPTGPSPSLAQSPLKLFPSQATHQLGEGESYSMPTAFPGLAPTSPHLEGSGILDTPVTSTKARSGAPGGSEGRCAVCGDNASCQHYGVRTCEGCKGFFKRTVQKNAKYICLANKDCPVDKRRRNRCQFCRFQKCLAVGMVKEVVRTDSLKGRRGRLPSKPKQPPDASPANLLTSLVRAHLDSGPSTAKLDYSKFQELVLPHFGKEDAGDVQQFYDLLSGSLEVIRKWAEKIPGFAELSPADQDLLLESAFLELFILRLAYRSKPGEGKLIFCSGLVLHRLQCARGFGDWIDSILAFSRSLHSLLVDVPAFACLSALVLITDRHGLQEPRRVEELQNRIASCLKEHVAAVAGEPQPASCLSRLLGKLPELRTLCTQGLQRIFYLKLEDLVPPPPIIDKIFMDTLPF
The target of test [20] is Steroidogenic factor 1 (Homo sapiens) (UniProt Q13285). Kind of test: Selectivity interaction (Reporter gene assay) EUB0001168a NR5A1.
Test [21] deals with T3, Alpha trans-inducing protein (Human alphaherpesvirus 1). Kind of test: Selectivity interaction (Reporter gene assay) EUB0001168a UL48.
Test [22] addresses T4, Retinoic acid receptor RXR-alpha (Homo sapiens). Kind of test: Selectivity interaction (Reporter gene assay) EUB0001168a RXRA. The note with it: reference bexarotene 1 uM, Selectivity number of off-targets 0.0, Selectivity number of targets 1.0, Source Knowledge inhouse.
For test [23], the target named is T1, Hepatocyte nuclear factor 4-alpha (Homo sapiens). Briefly: Selectivity interaction (Reporter gene assay) EUB0001167a HNF4A.
In test [24] the target is T2, Nuclear receptor subfamily 2 group C member 1 (Homo sapiens). Kind of test: Selectivity interaction (Reporter gene assay) EUB0001167a NR2C1.
Test [25] concerns the target Nuclear receptor subfamily 2 group E member 1 (Homo sapiens) (UniProt Q9Y466). Kind of test: Selectivity interaction (Reporter gene assay) EUB0001167a NR2E1.
The target of test [26] is Nuclear receptor subfamily 4immunitygroup A member 1 (Homo sapiens) (UniProt P22736). Briefly: Selectivity interaction (Reporter gene assay) EUB0001167a NR4A1.
In test [27] the target is Steroidogenic factor 1 (Homo sapiens) (UniProt Q13285). Kind of test: Selectivity interaction (Reporter gene assay) EUB0001167a NR5A1.
Test [28] addresses T3, Alpha trans-inducing protein (Human alphaherpesvirus 1). Kind of test: Selectivity interaction (Reporter gene assay) EUB0001167a UL48.
The target in test [29] is T4, Retinoic acid receptor RXR-alpha (Homo sapiens). Kind of test: Selectivity interaction (Reporter gene assay) EUB0001167a RXRA. The note with it: reference bexarotene 1 uM, Selectivity number of off-targets 0.0, Selectivity number of targets 1.0, Source Knowledge inhouse.
Test [30] has as its target T1, Hepatocyte nuclear factor 4-alpha (Homo sapiens). Kind of test: Selectivity interaction (Reporter gene assay) EUB0001170a HNF4A.
For test [31], the target named is T2, Nuclear receptor subfamily 2 group C member 1 (Homo sapiens). Briefly: Selectivity interaction (Reporter gene assay) EUB0001170a NR2C1.
Test [32] addresses Nuclear receptor subfamily 2 group E member 1 (Homo sapiens) (UniProt Q9Y466). Briefly: Selectivity interaction (Reporter gene assay) EUB0001170a NR2E1.
For test [33], the target named is Nuclear receptor subfamily 4immunitygroup A member 1 (Homo sapiens) (UniProt P22736). Briefly: Selectivity interaction (Reporter gene assay) EUB0001170a NR4A1.
Test [34] deals with Steroidogenic factor 1 (Homo sapiens) (UniProt Q13285). Briefly: Selectivity interaction (Reporter gene assay) EUB0001170a NR5A1.
The target of test [35] is T3, Alpha trans-inducing protein (Human alphaherpesvirus 1). Kind of test: Selectivity interaction (Reporter gene assay) EUB0001170a UL48.
Test [36] has as its target T4, Retinoic acid receptor RXR-alpha (Homo sapiens). Briefly: Selectivity interaction (Reporter gene assay) EUB0001170a RXRA. Particulars: reference bexarotene 1 uM, Selectivity number of off-targets 0.0, Selectivity number of targets 1.0, Source Knowledge inhouse.

On to `CCOC(=O)c1ccc(CN(Cc2ccc(-c3cccc(S(C)(=O)=O)c3)cc2)S(=O)(=O)c2c(C)cc(C)cc2C)o1`, for which the Fold activation in test [1] is 1.29; in [2], 1.02; in test [4], 1.26; in test [5] it was 1.07. Besides, the Remaining activity in test [3] came to 0.776. In [6], the P-value stood at 0.0222. Further, the Relative activation in test [7] was 0.903%.
Consider `CC(C)(O)c1cn(-c2ccc(-c3cccc(S(C)(=O)=O)c3)cc2)c(C(C)(C)c2ccccc2Cl)n1`, for which the Fold activation in [8] was 1.15; in test [9], 1.38; in [11], 1.01; in test [12] it was 1.21. Also, in test [10], the Remaining activity was 0.931. In addition, the P-value in test [13] was 0.000455. This molecule showed a Relative activation in [14] of 0.459%.
As to `O=C(O)c1ccnc(N2CC(O)(c3ccc(OCc4c(-c5c(Cl)cccc5Cl)noc4C4CC4)cc3Cl)C2)c1`, the Fold activation stood at 5.01 in test [15]; 1.13 in [16]; 1.18 in test [17]; 1.12 in test [18]; 1.01 in [19]; 1.07 in [20]. The P-value in test [21] was found to be 0.0011. The molecule further gave a Relative activation in [22] of 0.698%.
In the case of `CC(=O)Oc1ccc2c(c1)[C@@]1(C)CCC[C@](C)(C(=O)OC(=O)[C@@]3(C)CCC[C@]4(C)c5cc(OC(C)=O)ccc5CC[C@@H]34)[C@@H]1CC2`, the Remaining activity in test [23] stood at 0.928; in test [27] it was 0.86. For the same molecule, the Fold activation worked out at 1.13 in test [24], 1.06 in [25] and 1.11 in [26]. Besides, the P-value in test [28] amounted to 0.00117. The molecule also came in with a Relative activation in [29] of 0.795%.
For the molecule `CC(C)C(=O)N1CCC(c2cn(C)c3ncc(NC(=O)c4cccc(C#N)c4)c(C(F)(F)F)c23)CC1`, the figures for the Fold activation in [30], in test [33] and in [34] were 1.08, 1.14 and 1.12, respectively. Also, the Remaining activity in [31] was 0.916; in test [32], 0.839. In addition, in test [35], the P-value stood at 0.00111. The molecule further gave a Relative activation in test [36] of 0.336%.

(Values after ChEMBL document CHEMBL5715260, “Selectivity Literature for EUbOPEN Chemogenomic Library” (2024).)
